Where “and” joins values, the source holds several entries; their conditions need not be identical. Identical values can stand only once. Inconclusive results and toxic doses are left out. How the source made its calls: active means survival T/C of 150% or more; inactive means T/C below 125% in these data.
Test system: CD2F1 mice, L1210 leukemia ip, survival T/C
Assay: NCI In Vivo Anticancer Drug Screen. Data for tumor model L1210 Leukemia (intraperitoneal) in CD2F1 (CDF1) mice
Details: higher = longer survival
Procedure, shortened: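 Vehicle-treated tumor-bearing mice served as controls (C) for compound-treated mice (T). Reported figure is T divided by C.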

[1] = endpoint: mean survival time, dose: 100.0 mg/kg/injection, schedule: Q01DX009 (ip), vehicle: saline with Tween-80
[2] = endpoint: mean survival time, dose: 200.0 mg/kg/injection, schedule: Q01DX009 (ip), vehicle: saline with Tween-80
[3] = endpoint: mean survival time, dose: 400.0 mg/kg/injection, schedule: Q01DX009 (ip), vehicle: saline with Tween-80
[4] = endpoint: mean survival time, dose: 100.0 mg/kg/injection, schedule: Q04DX003 (ip), vehicle: saline
[5] = endpoint: mean survival time, dose: 100.0 mg/kg/injection, schedule: Q04DX003 (ip), vehicle: saline with Tween-80
[6] = endpoint: mean survival time, dose: 200.0 mg/kg/injection, schedule: Q04DX003 (ip), vehicle: saline with Tween-80
[7] = endpoint: mean survival time, dose: 400.0 mg/kg/injection, schedule: Q04DX003 (ip), vehicle: saline with Tween-80
[8] = endpoint: mean survival time, dose: 100.0 mg/kg/injection, schedule: Q04DX002 (ip), vehicle: saline with Tween-80
[9] = endpoint: mean survival time, dose: 400.0 mg/kg/injection, schedule: Q04DX002 (ip), vehicle: saline with Tween-80

Measured: T/C

[Cl][Pt+2][Cl].[NH-]c1ccccc1[NH-]
inactive: endpoint: mean survival time, dose: 1.25 mg/kg/injection, schedule: Q01DX009 (ip), vehicle: saline with Tween-80 120 % of control | endpoint: mean survival time, dose: 10.0 mg/kg/injection, schedule: Q01DX009 (ip), vehicle: saline with Tween-80 100 % of control

N#CC1(C#N)OC1(C#N)c1ccccc1 (configuration not stated)
inactive: endpoint: mean survival time, dose: 3.0 mg/kg/injection, schedule: Q01DX009 (ip), vehicle: saline with Tween-80 101 % of control | endpoint: mean survival time, dose: 6.25 mg/kg/injection, schedule: Q01DX001 (ip), vehicle: saline with Tween-80 95 % of control | endpoint: mean survival time, dose: 12.0 mg/kg/injection, schedule: Q01DX009 (ip), vehicle: saline with Tween-80 98 % of control

CCOC(=O)C(=NN)C(=O)OCC
inactive: endpoint: mean survival time, dose: 100.0 mg/kg/injection, schedule: Q01DX001 (ip), vehicle: saline with Tween-80 97 % of control | [1] 96 % of control | endpoint: mean survival time, dose: 200.0 mg/kg/injection, schedule: Q01DX001 (ip), vehicle: saline with Tween-80 105 % of control | [2] 101 % of control | endpoint: mean survival time, dose: 400.0 mg/kg/injection, schedule: Q01DX001 (ip), vehicle: saline with Tween-80 102 % of control | [3] 93 % of control

CN(C)CC(O)c1ccc(O)c(O)c1 (configuration not stated)
inactive: [4] 115 % of control | endpoint: mean survival time, dose: 200.0 mg/kg/injection, schedule: Q04DX003 (ip), vehicle: saline 115 % of control | endpoint: mean survival time, dose: 400.0 mg/kg/injection, schedule: Q04DX003 (ip), vehicle: saline 103 % of control

N#CC(C#N)=C1c2ccccc2C(=O)c2ccccc21
inactive: [1] 90 % of control | [2] 86 % of control | [3] 90 % of control

CCOP(=O)(OCC)/C(C#N)=C\c1ccc(O)c(OC)c1
inactive: [5] 98 % of control | [6] 101 % of control | [7] 96 % of control

C=C(C)C(=O)O[C@H]1[C@H]2[C@H](OC(=O)[C@H]2C)[C@H](O)[C@@H](C)[C@@H]2C=CC(=O)[C@]21C
inactive: endpoint: mean survival time, dose: 3.13 mg/kg/injection, schedule: Q01DX009 (ip), vehicle: saline 91 % of control | endpoint: mean survival time, dose: 6.25 mg/kg/injection, schedule: Q01DX009 (ip), vehicle: saline 95 % of control | endpoint: mean survival time, dose: 7.5 mg/kg/injection, schedule: Q01DX009 (ip), vehicle: saline 102 % of control | endpoint: mean survival time, dose: 12.5 mg/kg/injection, schedule: Q01DX009 (ip), vehicle: saline 93 % of control | endpoint: mean survival time, dose: 15.0 mg/kg/injection, schedule: Q01DX009 (ip), vehicle: saline 103 % of control | endpoint: mean survival time, dose: 25.0 mg/kg/injection, schedule: Q01DX009 (ip), vehicle: saline 108 % of control | endpoint: mean survival time, dose: 30.0 mg/kg/injection, schedule: Q01DX009 (ip), vehicle: saline 102 % of control

O=C(O)CCC(NC(=O)COc1ccc(Cl)cc1Cl)C(=O)O (configuration not stated)
inactive: endpoint: mean survival time, dose: 25.0 mg/kg/injection, schedule: Q04DX002 (ip), vehicle: saline with Tween-80 100 % of control | endpoint: mean survival time, dose: 50.0 mg/kg/injection, schedule: Q04DX002 (ip), vehicle: saline with Tween-80 95 % of control | [8] 100 % of control and 101 % of control | [9] 93 % of control

O=c1[nH]c(/C=C/C=C/c2ccccc2)c([N+](=O)[O-])c(=O)[nH]1
inactive: endpoint: mean survival time, dose: 50.0 mg/kg/injection, schedule: Q04DX002 (ip), vehicle: Klucel (hydroxypropylcellulose) (HPC) 98 % of control | endpoint: mean survival time, dose: 100.0 mg/kg/injection, schedule: Q04DX002 (ip), vehicle: Klucel (hydroxypropylcellulose) (HPC) 91 % of control and 94 % of control | endpoint: mean survival time, dose: 200.0 mg/kg/injection, schedule: Q04DX002 (ip), vehicle: Klucel (hydroxypropylcellulose) (HPC) 88 % of control and 94 % of control | endpoint: mean survival time, dose: 400.0 mg/kg/injection, schedule: Q04DX002 (ip), vehicle: Klucel (hydroxypropylcellulose) (HPC) 98 % of control

CC(O)c1ccc2c(c1)N(CCCN1CCN(CCO)CC1)c1ccccc1S2 (configuration not stated)
inactive: [4] 97 % of control

Nc1nc2nc3c(nc2c(=O)[nH]1)CN(c1ccc(C(=O)O)cc1)C3=O
inactive: [5] 95 % of control | [6] 97 % of control

C(=N/N=C/c1ccc2c(c1)OCO2)/c1ccco1
inactive: [5] 93 % of control | [2] 90 % of control | [6] 96 % of control | [3] 86 % of control | [7] 95 % of control

CCN(CC)C(=S)S
inactive: endpoint: mean survival time, dose: 100.0 mg/kg/injection, schedule: Q04DX003 (ip), vehicle: other 94 % of control | endpoint: mean survival time, dose: 200.0 mg/kg/injection, schedule: Q04DX003 (ip), vehicle: other 97 % of control | endpoint: mean survival time, dose: 400.0 mg/kg/injection, schedule: Q04DX003 (ip), vehicle: other 103 % of control

[Cl][Pt+2][Cl].[NH-]C1CCCCC1[NH-] (configuration not stated)
inactive: endpoint: mean survival time, dose: 0.39 mg/kg/injection, schedule: Q04DX003 (ip), vehicle: saline with Tween-80 124 % of control | endpoint: mean survival time, dose: 1.56 mg/kg/injection, schedule: Q04DX002 (ip), vehicle: saline 119 % of control and 124 % of control | endpoint: median survival time, dose: 20.0 mg/kg/injection, schedule: Q04DX003 (ip), vehicle: saline 100 % of control

CC1=C(/C=C/C(=O)O)C(C)(C)CCC1
inactive: [8] 92 % of control | endpoint: mean survival time, dose: 200.0 mg/kg/injection, schedule: Q04DX002 (ip), vehicle: saline with Tween-80 96 % of control | [9] 92 % of control

From PubChem BioAssay AID256 (DTP/NCI, 2004)
